Laboratory results published in patent US10472346B2, “Potent gamma-secretase modulators” (The General Hospital Coporation, priority 2014, dated 2019).

Experiments:
[1] = tested on: Aβ40 levels; test: Effects of 7 days treatment on mouse plasma and brain Aβ40 levels; format: in vivo, male C57BL/6J mouse; details: for percent reduction of Aβ40 levels in brain: mouse brain; for percent reduction of Aβ40 levels in plasma: mouse plasma
Method: FIG. 3: The effects of Compound 1 after 7-days treatment on Aβ40 levels in male C57BL/6J mouse plasma A) (plasma) where the percent reduction was 62%, 81% and 91% for dosages of 10, 25, and 50 mg/kg, respectively and male C57BL/6J mouse brain B) where the percent reduction was 46%, 69% and 82% for dosages of 10, 25, and 50 mg/kg, respectively.
Effects of Compound 1 (7 Days Treatment) on Mouse Plasma and Brain Aβ40 Levels. The effects of Compound 1 after 7-days treatment on Aβ40 levels in mouse plasma and brain are depicted in FIG. 3A (plasma) and FIG. 3B (brain). For FIG. 3A, the percent reduction was 62%, 81% and 91% for dosages of 10, 25, and 50 mg/kg, respectively. For FIG. 3B, the percent reduction was 46%, 69% and 82% for dosages of 10, 25, and 50 mg/kg, respectively.

[2] = Plasma concentrations (pharmacokinetics) in male Sprague Dawley rats, iv and po; format: in vivo; details: rat
Method: FIG. 4. Time course of administration of Compound 1 to male Sprague Dawley rats: iv (1 mg/kg) or po (5 mg/kg). […] Clearance was 89 mL/hr/kg. T1/2 (iv) was 5.9 hrs.
Efficacy Studies in Rat. Plasma Concentrations of Compound 1 in Male Sprague Dawley Rats. FIG. 4 depicts the time course of administration of Compound 1 to male Sprague Dawley rats: iv (1 mg/kg) or [p (5 mg/kg). […] Clearance was 89 mL/hr/kg. T1/2 (iv) was 5.9 hrs.

[3] = tested on: Aβ42 levels; test: Effects of 7 days treatment on mouse plasma and brain Aβ42 levels; format: in vivo, male C57BL/6J mouse; details: for percent reduction of Aβ42 levels in brain: mouse brain; for percent reduction of Aβ42 levels in plasma: mouse plasma
Method: FIG. 2: The effects of Compound 1 after 7-days treatment on Aβ42 levels in male C57BL/6J mouse plasma A) (plasma) where the percent reduction was 76%, 91% and 96% for dosages of 10, 25, and 50 mg/kg, respectively and in male C57BL/6J mouse brain B) where the percent reduction was 36%, 69% and 85% for dosages of 10, 25, and 50 mg/kg, respectively.
Effects of Compound 1 (7 Days Treatment) on Mouse Plasma and Brain Aβ42 Levels. The effects of Compound 1 after 7-days treatment on Aβ42 levels in mouse plasma and brain are depicted in FIG. 2A (plasma) and FIG. 2B (brain). For FIG. 2A, the percent reduction was 76%, 91% and 96% for dosages of 10, 25, and 50 mg/kg, respectively. For FIG. 2B, the percent reduction was 36%, 69% and 85% for dosages of 10, 25, and 50 mg/kg, respectively.

[4] = tested on: Notch processing; test: Notch processing in transfected H4-APP751 cells (Western blot, Myc antibody, NICD); format: cell-based, human; details: H4-APP751 cells transfected with the NAE construct, different concentrations, 24 hrs
Text: Cells were harvested 48 hrs post transfection and applied to Western blotting analysis. Myc antibody was utilized to assess the NAED and NICD tagged with Myc on their N-termini. β-Actin was utilized as the loading control.
Cells were harvested 48 hrs post transfection and subjected to Western blotting analysis. Myc antibody was utilized to assess the NδED and NICD tagged with Myc on their N-termini.
Stable H4 human neuroglioma cells over-expressing human APP751, or H4-APP751 cells, were transfected with the NAE construct, and then treated with different concentrations SGSM Compound 1 (Lanes 1-6) or DAPT (Lanes 7-10) for another 24 hrs and are shown in FIG. 9. Cells were harvested 48 hrs post transfection and applied to Western blotting analysis. Myc antibody was utilized to assess the NAED and NICD tagged with Myc on their N-termini β-Actin was utilized as the loading control.
Stably-transfected H4 human neuroglioma cells over-expressing human APP751 (H4-APP751) cells, were transfected with the Notch NδED construct, and then treated with vehicle, or different doses of GSMs (40 nM, 200 nM, 1000 nM, and 5000 nM) for 24 hrs. Cells were harvested 48 hrs post transfection and subjected to Western blotting analysis.

[5] = tested on: Aβ42 levels; test: Effects of 9 days treatment on rat plasma and CSF Aβ42 levels; format: in vivo, male Sprague-Dawley rat; details: for reduction in CSF Aβ42 levels: rat CSF; for reduction in plasma Aβ42 levels: rat plasma
Method: FIG. 5: The effects of Compound 1 after 9-days treatment on Aβ42 levels in male Sprague-Dawley rat plasma A) where the reduction in plasma levels was 81%, 93% and 97%, for dosages of 5, 25, and 50 mg/kg, respectively and male Sprague-Dawley rat CSF B) where the reduction in CSF levels was 43%, 73% and 86%, for dosages of 5, 25, and 50 mg/kg, respectively.
Effects of Compound 1 (9 Days Treatment) on Rat Plasma and CSF Aβ42 Levels. The effects of Compound 1 after 9-days treatment on Aβ42 levels in rat plasma and CSF are depicted in FIG. 5A (plasma) and FIG. 5B (CSF). For FIG. 5A, the reduction in plasma levels was 81%, 93% and 97%, for dosages of 5, 25, and 50 mg/kg, respectively. For FIG. 5B, the reduction in CSF levels was 43%, 73% and 86%, for dosages of 5, 25, and 50 mg/kg, respectively.

[6] = tested on: total Aβ peptides; test: Levels of total Aβ peptides, SHSYSY-APP cell-based assay (sandwich ELISA); details: concentration response, percent solvent control
Text: FIG. 8: Representative concentration response curves of Compound 1 using our primary and orthogonal medium throughput SHSYSY-APP cell-based screening assays (10). Compounds are first screened two times in triplicate in our UCSD sandwich Aβ42 ELISA on sequential days and the average of the two assays must be within 3-fold of each other before being entered into the CDD relational database. The UCSD sandwich ELISA assay can easily handle 20 compounds per week. Compounds with Aβ42 IC50 values <100 nM continue through the testing funnel. The Z′ score and the % CV for the UCSD Aβ42 sandwich ELISA assay are 0.8 and 4, respectively. For the Meso Scale triplex assay the Z′ scores are 0.7, 0.9 and 0.6 Aβ42, Aβ40 and Aβ38, respectively and the % CV's are 7, 2 and 1 for Aβ42, Aβ40 and Aβ38, respectively. Aβ total peptides are measured using a sandwich ELISA.
The figure depicts percent solvent control (Aβ40/Aβ42/AβTotal) (left axis) and percent solvent control (Aβ38) again log of, concentration of Compound 1.

In the case of COc1nc(-c2cc(C)c(N[C@@H](C)c3ccc(F)cc3)nn2)ccc1-n1cnc(C)c1 [Compound 1, (S)—N-(1-(4-fluorophenyl)ethyl)-6-(6-methoxy-5-(4-methyl-1H-imidazol-1-yl)pyridin-2-yl)-4-methylpyridazin-3-amine], the “percent reduction of Aβ40 levels in brain” value ([1]; 10 mg/kg) is reported as 46%, the “percent reduction of Aβ40 levels in brain” value ([1]; 25 mg/kg) is reported as 69% and the “percent reduction of Aβ40 levels in brain” value ([1]; 50 mg/kg) is reported as 82%. The “percent reduction of Aβ40 levels in plasma” value ([1]; 10 mg/kg) was 62%, the “percent reduction of Aβ40 levels in plasma” value ([1]; 25 mg/kg) was 81% and the “percent reduction of Aβ40 levels in plasma” value ([1]; 50 mg/kg) was 91%. For the same compound, the bioavailability ([2]; iv (1 mg/kg) or po (5 mg/kg)) was 60.3%, the clearance ([2]; iv (1 mg/kg) or po (5 mg/kg)) was 1.48 mL/min/kg and the half-life ([2]; iv (1 mg/kg), read-out: T1/2 (iv) (converted)) was 5.9 h. The “percent reduction of Aβ42 levels in brain” value ([3]; 10 mg/kg) was 36%, the “percent reduction of Aβ42 levels in brain” value ([3]; 25 mg/kg) was 69% and the “percent reduction of Aβ42 levels in brain” value ([3]; 50 mg/kg) was 85%. The “percent reduction of Aβ42 levels in plasma” value ([3]; 10 mg/kg) was 76%, the “percent reduction of Aβ42 levels in plasma” value ([3]; 25 mg/kg) was 91% and the “percent reduction of Aβ42 levels in plasma” value ([3]; 50 mg/kg) was 96%. For the same compound, the “Notch processing (NICD, Western blot)” value [4] was “did not inhibit Notch processing”, the “reduction in CSF Aβ42 levels” value ([5]; 5 mg/kg) was 43% and the “reduction in CSF Aβ42 levels” value ([5]; 25 mg/kg) was 73%. The “reduction in CSF Aβ42 levels” value ([5]; 50 mg/kg) was 86%, the “reduction in plasma Aβ42 levels” value ([5]; 5 mg/kg) was 81% and the “reduction in plasma Aβ42 levels” value ([5]; 25 mg/kg) was 93%. For the same compound, the “reduction in plasma Aβ42 levels” value ([5]; 50 mg/kg) was 97% and the “levels of total Aβ peptides” value [6] was “does not decrease levels of total Aβ peptides”.
